{
  "source": "patent US20200246241A1",
  "about": "“COSMETIC COMPOSITION FOR BLOCKING FINE DUST” (LG HOUSEHOLD & HEALTH CARE LTD., priority 2017, published 2020)",
  "note": "Entries after “also recorded” stand apart in the source; their conditions may differ.",
  "data": [
    {"experiment": "Estimation of fine dust attachment on PMMA plate coated with artificial sebum", "settings": "compared to control group or other compounds", "procedure": "1) Method for Estimating Fine Dust Attachment\ni) After applying artificial sebum of 1.3 mg/cm^2 on a PMMA plate, it was dried for 15 minutes.\nii) After applying a test formulation on the dried artificial sebum in the same amount, it was dried for 15 minutes (Noting was applied on the control group).\niii) The PMMA plate was attached on the internal top of the self-made chamber, and a pan on the bottom of the chamber was operated for 5 minutes, to expose 0.5 g substitutive fine dusts (brand name LM-YG0510, comprising strontium carbonate, alumina, europium oxide, and dysprosium oxide).\niv) Using a magnifying glass (Aphrodite-3, 50×), UV images were photographed (measuring 4 points per plate).\nv) Using ImagePro Plus, the area of dust attachment was measured.\nvi) The fine dust attachment rate was calculated by comparing the sample with the result of 3 times of experiments (Setting the fine dust attachment rate of the control group to 100).", "values": [
      {"molecule": "CC(C)(C)CC(C)(C)c1cc(Cc2cc(C(C)(C)CC(C)(C)C)cc(-n3nc4ccccc4n3)c2O)c(O)c(-n2nc3ccccc3n2)c1", "note": "[Methylene Bis-Benzotriazolyl tetramethyl butylphenol]", "effect of preventing fine dust attachment (in words)": "excellent effect of preventing fine dust attachment; also recorded: excellent effect of reducing fine dust attachment"},
      {"molecule": "CCCCC(CC)COC(=O)c1ccc(Nc2nc(Nc3ccc(C(=O)OCC(CC)CCCC)cc3)nc(Nc3ccc(C(=O)OCC(CC)CCCC)cc3)n2)cc1", "note": "(stereo not drawn) [ethylhexyl triazone]", "effect of preventing fine dust attachment (in words)": "excellent effect of preventing fine dust attachment; also recorded: excellent effect of reducing fine dust attachment"},
      {"molecule": "O=S(=O)([O-])c1cc(S(=O)(=O)O)cc2[nH]c(-c3ccc(-c4nc5c(S(=O)(=O)[O-])cc(S(=O)(=O)O)cc5[nH]4)cc3)nc12.[Na+].[Na+]", "note": "[disodium phenyl dibenzimidazole tetrasulfonate]", "effect of preventing fine dust attachment (in words)": "excellent effect of preventing fine dust attachment; also recorded: excellent effect of reducing fine dust attachment"},
      {"molecule": "CCCCC(CC)COC(=O)c1ccc(Nc2nc(Nc3ccc(C(=O)NC(C)(C)C)cc3)nc(Nc3ccc(C(=O)OCC(CC)CCCC)cc3)n2)cc1", "note": "(stereo not drawn) [Diethylhexyl butamido triazone]", "effect of preventing fine dust attachment (in words)": "excellent effect of preventing fine dust attachment; also recorded: excellent effect of reducing fine dust attachment"},
      {"molecule": "trisbiphenyl triazine", "effect of preventing fine dust attachment (in words)": "excellent effect of preventing fine dust attachment; also recorded: excellent effect of reducing fine dust attachment"},
      {"molecule": "Nc1nc(N)nc(N)n1", "note": "[melamine, 1,3,5-triazine-2,4,6-triamine]", "effect of preventing fine dust attachment (in words)": "excellent effect of preventing fine dust attachment"}
    ]}
  ]
}
